Laboratory results reported in article PMC6125496 (Antimicrobial Agents and Chemotherapy, 2018).
In brackets after ≈: the same amount, converted by molar mass. Like-named read-outs stand apart in the source and are kept apart here. Non-standard residues stand in square brackets, D forms with d. Residues, ends and D or L forms follow the SMILES beside them. Dab(3S-OH) = NC[C@H](O)[C@H](N)C(=O)O; Phe(2-F) = N[C@@H](Cc1ccccc1F)C(=O)O; ΔZArg = N=C(N)NCC/C=C(\N)C(=O)O; dOrn = NCCC[C@@H](N)C(=O)O; Dab = NCC[C@H](N)C(=O)O

Columns and labels:
in vitro [1] = details: human, cryopreserved pooled hepatocytes
CHO-K1 cells = details: 512 μM, 24 h; S9 medium negative control 0.7%
Procedure: The test was conducted by Eurofins Panlabs. […] At the end of the incubation period the cells were fixed, and their DNA was stained with Hoechst. The visualization and scoring of the cells was done using an automated fluorescence microscope coupled with proprietary automated image analysis software ([46]). The percent micronucleated cells was calculated.

E. coli EN122 = details: ESBL, clinical isolate
Procedure: MIC values were determined using Clinical and Laboratory Standards Institute (CLSI) broth microdilution methodology, colony direct suspension, as described in CLSI document M07-A10 ([42]).

hERG = hERG (Homo sapiens, UniProt Q12809); assay: in vitro
Procedure: Inhibition of the human ether-a-go-go-related gene (hERG) cardiac potassium ion channel was determined by Eurofins Panlabs (Eurofins Panlabs, Inc., St. Charles, MO) in CHO-K1 (Chinese hamster ovary) cells stably transfected with human hERG cDNA using QPatch automated whole-cell patch clamp electrophysiology as described in reference [45]. […] In this method, the extracellular solution (control) is applied first and the cell is stabilized in the solution for 5 min. Then the test compound is applied from low to high concentrations sequentially on the same cell, with 5 min for each test concentration, at room temperature.

in vitro [2] = details: cryopreserved pooled hepatocytes
Procedure: The hepatocyte metabolic stability assays were performed by Cyprotex Discovery Ltd. (Macclesfield, UK). This assay utilizes cryopreserved pooled hepatocytes from different species (mouse, rat, dog, monkey, and human), stored in liquid nitrogen prior to use. […] The final incubation volume was 500 μl. Two control compounds were included with each species alongside an appropriate vehicle control. […] The termination plates were centrifuged at 2,500 rpm at 4°C for 30 min to precipitate the protein. Following protein precipitation, the test compound sample supernatants were diluted with analytical-grade water, whereas the control compounds were diluted with an internal standard (metoprolol) in water. The test compound samples were analyzed by liquid chromatography-tandem mass spectrometry (LC-MS/MS).

[3] = tested on: Klebsiella pneumoniae, colistin resistant (46)
Source text: (§1) Reference strains are from the German Collection of Microorganisms and Cell Cultures (DSMZ), the American Type Culture Collection (ATCC), the National Collection of Type Cultures (NCTC), and the Medical and Molecular Microbiology, Faculty of Science and Medicine, University of Fribourg, Switzerland.

[4] = tested on: Gentamicin-resistant E. coli (6); details: 6 gentamicin-resistant isolates
Source text: as §1

in vivo = details: female, plasma, iv
Procedure: Pharmacokinetic analyses were performed by Pharmacelsus (Saarbrücken, Germany). […] Blood (100 μl) was collected from three animals per time point (5, 10, 20, 30, 60, and 120 min postdose for mice and 5, 15, 30, 60, 180, and 420 min postdose for rats) in tubes containing K3-EDTA as an anticoagulant. Samples were stored on ice and centrifuged at 6,000 rpm for 10 min at 4°C. A sample volume of 50 μl was mixed with 5 μl of solvent (acetonitrile-H2O-DMSO, [5/4/1, vol/vol/vol] plus 1% formic acid). A volume of 10 μl of solvent containing the internal standard and 50 μl of precipitant (10% TCA) were added to 55 μl of sample. The mixture was vortexed and centrifuged at 6,000 × g (room temperature) for 10 min. The protein-free supernatant was analyzed by LC-MS using an Ultimate 3000RS ultrahigh-performance liquid chromatograph (U-HPLC) coupled with an Orbitrap Q Exactive mass spectrometer.
Analytes were separated on a Accurore phenyl-hexyl analytical column (2.1 by 50 mm, 2.6 μm; Thermo, Germany) using a linear gradient of mobile phase A (acetonitrile-0.2% heptafluorobutyric acid)-mobile phase B (water-0.2% heptafluorobutyric acid), starting from 5% mobile phase A to 97% in 2.2 min, and a flow rate of […]. Peaks were analyzed by mass spectrometry (ESI ionization in MRM mode) using Xcalibur 4.0 software. The products analyzed, [M + 2H]^2+ and [M + 3H]^3+, were 539.8 and 360.2 Da, respectively. PK parameters were calculated using a noncompartmental analysis model and Kinetica 5.0 software (Thermo Scientific, Waltham, MA). The mean plasma concentrations from all three mice at each time point were used in the calculation.

[5] = target: Nav 1.5 human sodium ion channel (Homo sapiens, UniProt Q14524); assay: cell-based
Procedure: Inhibition of the Nav 1.5 human sodium ion channel was determined by Eurofins Panlabs in HEK-293 cells stably transfected with human Nav1.5 cDNA (type V voltage-gated sodium channel alpha subunit, GenBank accession number NM_000335) using IonWorks Quattro automated whole-cell patch clamp electrophysiology. […] In this method, the voltage protocol is applied prior to compound addition (Pre), the compounds are added and incubated for 600 s at room temperature, and then the voltage protocol is applied a final time (Post) on the IonWorks Quattro.

[6] = tested on: Klebsiella pneumoniae ATCC BAA-2146; details: Ambler class B carbapenemase; NDM-1 + CTX-M15 + TEM-1 + CMY-6 + OXA-1 + SHV-1
Source text: as §1

[7] = tested on: Enterobacter cloacae KBM15; details: Ambler class A carbapenemase; KPC-2 + TEM-1 + OXA-9
Source text: as §1

Escherichia coli GAL = details: Ambler class B carbapenemase; NDM-6 + OXA-1 + CTX-M15
Source text: as §1

[8] = tested on: Enterobacter cloacae 3047; details: Ambler class B carbapenemase; NDM-1 + CTX-M15 + TEM-1 + OXA-1
Source text: as §1

Escherichia coli MON = details: Ambler class B carbapenemase; NDM-5 + CTX-M15 + TEM-1
Source text: as §1

Escherichia coli EGB957 = details: Ambler class B carbapenemase; VIM-1 + OXA-48 + TEM-1 + CMY-4 + OXA-1
Source text: as §1

Escherichia coli PSP = details: Ambler class A carbapenemase; KPC-2 + TEM-1 + OXA-1
Source text: as §1

[9] = tested on: Klebsiella pneumoniae LAM; details: Ambler class B carbapenemase; NDM-4 + SHV-11 + CTX-M15
Source text: as §1

hERG, sequence (Q12809 whole entry): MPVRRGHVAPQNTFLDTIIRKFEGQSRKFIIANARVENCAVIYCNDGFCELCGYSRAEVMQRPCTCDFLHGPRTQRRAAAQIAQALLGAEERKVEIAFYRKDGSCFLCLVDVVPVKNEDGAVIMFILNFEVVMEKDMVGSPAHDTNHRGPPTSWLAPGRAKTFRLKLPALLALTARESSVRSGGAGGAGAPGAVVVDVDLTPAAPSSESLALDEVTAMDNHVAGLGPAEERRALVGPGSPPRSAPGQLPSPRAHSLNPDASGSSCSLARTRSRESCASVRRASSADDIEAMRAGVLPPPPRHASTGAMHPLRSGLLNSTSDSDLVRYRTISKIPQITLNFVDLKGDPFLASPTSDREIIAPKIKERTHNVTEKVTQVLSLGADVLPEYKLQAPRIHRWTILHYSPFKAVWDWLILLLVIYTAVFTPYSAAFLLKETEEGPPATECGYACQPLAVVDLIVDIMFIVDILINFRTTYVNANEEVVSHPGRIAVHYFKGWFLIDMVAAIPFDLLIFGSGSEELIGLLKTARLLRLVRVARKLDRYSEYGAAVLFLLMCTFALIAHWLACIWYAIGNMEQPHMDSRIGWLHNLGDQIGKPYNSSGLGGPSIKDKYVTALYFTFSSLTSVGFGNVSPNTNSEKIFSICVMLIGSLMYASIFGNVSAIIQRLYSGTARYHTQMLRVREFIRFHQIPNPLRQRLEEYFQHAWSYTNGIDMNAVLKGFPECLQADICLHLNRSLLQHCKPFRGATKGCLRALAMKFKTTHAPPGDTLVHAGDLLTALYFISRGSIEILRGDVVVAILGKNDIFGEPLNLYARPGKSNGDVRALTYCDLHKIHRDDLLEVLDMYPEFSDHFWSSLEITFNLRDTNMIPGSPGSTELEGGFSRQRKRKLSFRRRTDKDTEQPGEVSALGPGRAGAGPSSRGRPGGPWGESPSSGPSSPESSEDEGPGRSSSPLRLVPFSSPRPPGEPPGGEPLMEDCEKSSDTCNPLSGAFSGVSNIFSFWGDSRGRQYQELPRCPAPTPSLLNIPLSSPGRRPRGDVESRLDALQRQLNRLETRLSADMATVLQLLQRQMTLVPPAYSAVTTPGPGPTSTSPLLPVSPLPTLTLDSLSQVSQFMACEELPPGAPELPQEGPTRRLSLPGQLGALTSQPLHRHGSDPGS
Nav 1.5 human sodium ion channel, sequence (Q14524 1-2015 isoform Q14524-2): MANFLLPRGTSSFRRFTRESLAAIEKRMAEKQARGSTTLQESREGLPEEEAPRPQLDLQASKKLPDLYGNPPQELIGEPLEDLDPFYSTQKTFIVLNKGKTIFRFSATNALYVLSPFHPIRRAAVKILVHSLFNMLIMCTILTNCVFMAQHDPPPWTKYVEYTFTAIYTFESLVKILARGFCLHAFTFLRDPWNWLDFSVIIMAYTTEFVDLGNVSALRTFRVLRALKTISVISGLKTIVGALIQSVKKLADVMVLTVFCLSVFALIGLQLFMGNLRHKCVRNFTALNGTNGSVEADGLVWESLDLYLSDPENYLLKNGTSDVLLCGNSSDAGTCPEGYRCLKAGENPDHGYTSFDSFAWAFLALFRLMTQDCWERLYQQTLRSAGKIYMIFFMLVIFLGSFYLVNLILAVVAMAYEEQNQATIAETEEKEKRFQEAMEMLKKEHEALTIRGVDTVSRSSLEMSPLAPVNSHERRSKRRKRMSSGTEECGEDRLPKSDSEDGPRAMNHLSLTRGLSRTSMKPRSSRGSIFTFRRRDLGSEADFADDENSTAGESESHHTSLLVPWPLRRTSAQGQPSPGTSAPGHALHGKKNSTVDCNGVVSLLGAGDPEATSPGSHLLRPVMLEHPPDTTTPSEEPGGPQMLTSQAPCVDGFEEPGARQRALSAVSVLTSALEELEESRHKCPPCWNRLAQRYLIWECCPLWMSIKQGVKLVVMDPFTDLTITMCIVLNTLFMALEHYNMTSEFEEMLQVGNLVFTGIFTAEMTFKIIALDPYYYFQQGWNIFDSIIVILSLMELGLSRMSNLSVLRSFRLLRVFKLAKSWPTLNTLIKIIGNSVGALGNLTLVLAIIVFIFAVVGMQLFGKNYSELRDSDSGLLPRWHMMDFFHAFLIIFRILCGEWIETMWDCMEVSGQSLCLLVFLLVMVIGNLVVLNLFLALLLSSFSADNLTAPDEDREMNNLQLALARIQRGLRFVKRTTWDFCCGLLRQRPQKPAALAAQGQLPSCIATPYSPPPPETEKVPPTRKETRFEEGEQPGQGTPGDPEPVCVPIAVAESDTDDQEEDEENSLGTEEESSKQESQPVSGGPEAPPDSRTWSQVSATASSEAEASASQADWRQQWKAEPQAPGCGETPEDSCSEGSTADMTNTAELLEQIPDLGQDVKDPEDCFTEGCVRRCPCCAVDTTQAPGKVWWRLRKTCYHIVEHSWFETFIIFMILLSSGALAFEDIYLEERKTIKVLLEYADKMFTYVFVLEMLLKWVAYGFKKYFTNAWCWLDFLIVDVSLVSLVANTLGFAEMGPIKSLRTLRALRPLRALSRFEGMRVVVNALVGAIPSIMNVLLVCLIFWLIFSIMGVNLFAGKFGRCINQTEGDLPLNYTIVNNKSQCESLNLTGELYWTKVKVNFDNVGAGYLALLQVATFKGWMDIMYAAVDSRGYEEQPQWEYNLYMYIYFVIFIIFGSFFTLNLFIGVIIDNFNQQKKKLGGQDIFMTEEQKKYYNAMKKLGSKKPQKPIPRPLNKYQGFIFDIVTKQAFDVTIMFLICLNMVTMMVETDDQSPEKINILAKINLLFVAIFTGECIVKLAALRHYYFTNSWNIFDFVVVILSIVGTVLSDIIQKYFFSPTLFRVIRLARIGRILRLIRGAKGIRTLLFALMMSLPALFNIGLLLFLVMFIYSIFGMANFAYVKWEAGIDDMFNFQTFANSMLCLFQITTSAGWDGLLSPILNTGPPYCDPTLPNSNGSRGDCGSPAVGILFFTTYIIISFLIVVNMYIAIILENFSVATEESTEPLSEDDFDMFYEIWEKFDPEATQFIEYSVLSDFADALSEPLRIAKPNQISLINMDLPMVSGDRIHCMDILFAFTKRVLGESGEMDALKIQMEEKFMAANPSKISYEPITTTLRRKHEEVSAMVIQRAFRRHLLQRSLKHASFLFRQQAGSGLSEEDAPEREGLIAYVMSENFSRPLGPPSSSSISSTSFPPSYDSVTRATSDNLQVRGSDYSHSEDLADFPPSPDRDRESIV

N=C(N)NCC/C=C(\NC(=O)[C@H](CCCCN)NC(=O)[C@H](Cc1ccccc1F)NC(=O)[C@@H]1CCCN1C(=O)[C@@H](CCCN)NC(=O)CNC(=O)[C@H](CCN)NC(=O)[C@@H](NC(=O)[C@@H](N)CCCCN)[C@@H](O)CN)C(=O)O [NOSO-502] (H-K[Dab(3S-OH)][Dab]G[dOrn]P[Phe(2-F)]K[ΔZArg]-OH)
half-life at 1 μM (in vitro [1]): 5.48 h
cells with micronuclei (CHO-K1 cells): 0.61%
MIC (E. coli EN122): 4 µg/mL (≈ 3.71 µM)
inhibition at 5 min, 256 µM (hERG): 2.6%
inhibition at 5 min, 512 µM (hERG): 1.9%
half-life at 1 μM (in vitro [2]; dog): 8.05 h
half-life at 1 μM (in vitro [2]; monkey): 11.6 h
half-life at 1 μM (in vitro [2]; mouse): 3.2 h
half-life at 1 μM (in vitro [2]; rat): 3.23 h
MIC range ([3]; Unknown mechanism (1)): 0.5 µg/mL (≈ 0.464 µM)
MIC range ([3]; crrB F84S substitution (1)): 8 µg/mL (≈ 7.42 µM)
MIC range ([3]; crrB G183V substitution (1)): 64 µg/mL (≈ 59.4 µM)
MIC range ([3]; crrB N141Y substitution (1)): 16 µg/mL (≈ 14.8 µM)
MIC range ([3]; crrB P151L substitution (1)): 128 µg/mL (≈ 119 µM)
MIC range ([3]; mcr-1 (1)): 0.5 µg/mL (≈ 0.464 µM)
MIC range ([3]; mgrB IS1R between +44 and +45 (2)): 1 µg/mL (≈ 0.927 µM)
MIC range ([3]; mgrB IS1R into promoter between −45 and −46 (3)): 0.5 to 1 µg/mL
MIC range ([3]; mgrB IS5 between +74 and +75 (4)): 0.5 to 2 µg/mL
MIC range ([3]; mgrB IS903B between +69 and +70 (2)): 0.25 to 1 µg/mL
MIC range ([3]; mgrB ISKpn14 into promoter between −28 and −29 (2)): 0.5 to 2 µg/mL
MIC range ([3]; mgrB ISKpn26-like between +74 and +75 (2)): 1 µg/mL (≈ 0.927 µM)
MIC range ([3]; mgrB M27K substitution (1)): 2 µg/mL (≈ 1.85 µM)
MIC range ([3]; mgrB N42Y and K43I substitutions (1)): 2 µg/mL (≈ 1.85 µM)
MIC range ([3]; mgrB W20R substitution (1)): 0.5 µg/mL (≈ 0.464 µM)
MIC range ([3]; mgrB W47R substitution (1)): 1 µg/mL (≈ 0.927 µM)
MIC range ([3]; mgrB full deletion (5)): 0.5 to 1 µg/mL
MIC range ([3]; mgrB premature termination (6)): 0.5 to 1 µg/mL
MIC range ([3]; phoQ R16C substitution (1)): 2 µg/mL (≈ 1.85 µM)
MIC range ([3]; pmrA G53S substitution (2)): 1 to 2 µg/mL
MIC range ([3]; pmrB L17Q substitution (1)): 1 µg/mL (≈ 0.927 µM)
MIC range ([3]; pmrB T157P substitution (6)): 0.25 to 16 µg/mL
MIC range [4]: 4 µg/mL (≈ 3.71 µM)
AUC(0-t) (in vivo; CD-1, mouse, 30 mg/kg): 8880 ng·h/mL
Cmax (in vivo; CD-1, mouse, 30 mg/kg): 23500 ng/mL
Vd (in vivo; CD-1, mouse, 30 mg/kg): 0.66 L/kg
clearance (in vivo; CD-1, mouse, 30 mg/kg): 18.8 mL/min/kg
half-life (in vivo; CD-1, mouse, 30 mg/kg): 0.417 h
AUC(0-t) (in vivo; Sprague-Dawley, rat, 15 mg/kg): 7990 ng·h/mL
Cmax (in vivo; Sprague-Dawley, rat, 15 mg/kg): 40700 ng/mL
Vd (in vivo; Sprague-Dawley, rat, 15 mg/kg): 0.94 L/kg
clearance (in vivo; Sprague-Dawley, rat, 15 mg/kg): 32 mL/min/kg
half-life (in vivo; Sprague-Dawley, rat, 15 mg/kg): 1.5 h
IC50 [5]: > 512 µM

polymyxin B [PMB]
MIC [6]: 1 µg/mL
MIC [7]: 0.5 µg/mL
MIC (Escherichia coli GAL): 0.25 µg/mL
MIC [8]: 0.5 µg/mL
MIC (Escherichia coli MON): 0.5 µg/mL
MIC (Escherichia coli EGB957): 0.5 µg/mL
MIC (Escherichia coli PSP): 0.5 µg/mL
MIC [9]: 0.5 µg/mL
